This assay deals with BDF1 mice, Adenocarcinoma 755 s.c., tumor weight T/C. In words: NCI In Vivo Anticancer Drug Screen. Data for tumor model Adenocarcinoma 755 (subcutaneous) in B6D2F1 (BDF1) mice. To be noted: endpoint: mean tumor weight, higher = larger tumour. The gist of the method: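 Transplantable tumor implanted; mice dosed with compound or vehicle; survival or tumor size recorded; ratio of treated to vehicle control reported.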

Setting [1] is: dose: 125.0 mg/kg/injection, schedule: Q01DX011 (ip), vehicle: methylcellulose (MC).

This is an account of results in PubChem BioAssay AID180 (DTP/NCI, 2004).

Where “and” joins values, the source holds several entries; their conditions need not be identical. Equal values may be shown once.

Take `c1nc(SCCSc2ncnc3nc[nH]c23)c2[nH]cnc2n1`: the T/C is 93 % of control (dose: 4.6 mg/kg/injection, schedule: Q01DX011 (ip), vehicle: methylcellulose (MC)); 86 % of control (dose: 9.3 mg/kg/injection, schedule: Q01DX011 (ip), vehicle: methylcellulose (MC)); 74 % of control (dose: 18.7 mg/kg/injection, schedule: Q01DX011 (ip), vehicle: methylcellulose (MC)); 1 % of control (dose: 75.0 mg/kg/injection, schedule: Q01DX011 (ip), vehicle: methylcellulose (MC)); 2 % of control (dose: 150.0 mg/kg/injection, schedule: Q01DX011 (ip), vehicle: methylcellulose (MC)).
For the compound `CCOC(=O)c1ccc(N=NN(C)C)cc1`, the T/C runs as follows: (dose: 8.0 mg/kg/injection, schedule: Q01DX011 (ip), vehicle: carboxymethylcellulose (CMC)) 92 % of control; (dose: 16.0 mg/kg/injection, schedule: Q01DX011 (ip), vehicle: carboxymethylcellulose (CMC)) 94 % of control; (dose: 31.0 mg/kg/injection, schedule: Q01DX011 (ip), vehicle: carboxymethylcellulose (CMC)) 113 % of control; (dose: 62.0 mg/kg/injection, schedule: Q01DX011 (ip), vehicle: carboxymethylcellulose (CMC)) 95 % of control.
As to `COc1cc2c(cc1I)-c1c(cc(OC)c(OC)c1OC)CC[C@@H]2NC(C)=O`, the T/C is, setting by setting: (dose: 27.5 mg/kg/injection, schedule: Q01DX011 (ip), vehicle: carboxymethylcellulose (CMC)) 98 % of control; (dose: 27.5 mg/kg/injection, schedule: Q01DX011 (ip), vehicle: saline) 106 % of control; (dose: 55.0 mg/kg/injection, schedule: Q01DX011 (ip), vehicle: carboxymethylcellulose (CMC)) 81 % of control; (dose: 55.0 mg/kg/injection, schedule: Q01DX011 (ip), vehicle: saline) 86 % of control; (dose: 110.0 mg/kg/injection, schedule: Q01DX011 (ip), vehicle: carboxymethylcellulose (CMC)) 40 % of control; (dose: 110.0 mg/kg/injection, schedule: Q01DX011 (ip), vehicle: saline) 58 % of control. For the same compound, the T/C (dose: 220.0 mg/kg/injection, schedule: Q01DX011 (ip), vehicle: saline) is 16 % of control.
In the case of `CC(Cl)CN(Cc1cc(O)c(CN(CC(C)Cl)CC(C)Cl)cc1O)CC(C)Cl` (stereo not given), under setting [1], the T/C is 58 % of control.
As for `CN(C)c1nc(Cl)nc2c1nc(Cl)n2C1CCCCO1` (stereo not given), the T/C by setting is: (dose: 30.0 mg/kg/injection, schedule: Q01DX011 (ip), vehicle: carboxymethylcellulose (CMC)) 102 % of control; (dose: 60.0 mg/kg/injection, schedule: Q01DX011 (ip), vehicle: carboxymethylcellulose (CMC)) 85 % of control; (dose: 120.0 mg/kg/injection, schedule: Q01DX011 (ip), vehicle: carboxymethylcellulose (CMC)) 68 % of control.
For the compound `CCCCS(=O)(=O)OCCCCOS(=O)(=O)CCCC`, the T/C reads like this: (dose: 45.0 mg/kg/injection, schedule: Q01DX011 (ip), vehicle: carboxymethylcellulose (CMC)) 108 % of control; (dose: 90.0 mg/kg/injection, schedule: Q01DX011 (ip), vehicle: carboxymethylcellulose (CMC)) 51 % of control; (dose: 180.0 mg/kg/injection, schedule: Q01DX011 (ip), vehicle: carboxymethylcellulose (CMC)) 41 % of control; (dose: 360.0 mg/kg/injection, schedule: Q01DX011 (ip), vehicle: carboxymethylcellulose (CMC)) 16 % of control.
For the compound `COc1cc(-c2ccc(Nc3ccccc3C(=O)O)c(OC)c2)ccc1Nc1ccccc1C(=O)O`, the T/C is, setting by setting: (dose: 25.0 mg/kg/injection, schedule: Q01DX011 (ip), vehicle: saline) 75 % of control; (dose: 50.0 mg/kg/injection, schedule: Q01DX011 (ip), vehicle: saline) 28 % of control; (dose: 100.0 mg/kg/injection, schedule: Q01DX011 (ip), vehicle: saline) 5 % of control.
In the case of `O=C1N(Cl)C(=O)C(c2ccc(Cl)cc2)(c2ccc(Cl)cc2)N1Cl`, the T/C (dose: 7.5 mg/kg/injection, schedule: Q#A X022 (ip), vehicle: saline) was 161 % of control; the T/C (dose: 15.0 mg/kg/injection, schedule: Q01DX011 (ip), vehicle: saline) was 100 % of control; the T/C (dose: 15.0 mg/kg/injection, schedule: Q#A X022 (ip), vehicle: saline) was 107 % of control; the T/C (dose: 30.0 mg/kg/injection, schedule: Q01DX011 (ip), vehicle: saline) was 52 % of control; the T/C (dose: 30.0 mg/kg/injection, schedule: Q#A X022 (ip), vehicle: saline) is 67 % of control; the T/C (dose: 45.0 mg/kg/injection, schedule: Q03DX004 (ip), vehicle: saline) is 73 % of control. In addition, the T/C is, setting by setting: (dose: 60.0 mg/kg/injection, schedule: Q01DX011 (ip), vehicle: saline) 62 % of control; (dose: 60.0 mg/kg/injection, schedule: Q#A X022 (ip), vehicle: saline) 28 % of control; (dose: 90.0 mg/kg/injection, schedule: Q03DX004 (ip), vehicle: saline) 78 % of control; (dose: 120.0 mg/kg/injection, schedule: Q01DX011 (ip), vehicle: saline) 23 % of control and 28 % of control; (dose: 180.0 mg/kg/injection, schedule: Q03DX004 (ip), vehicle: saline) 61 % of control; (dose: 240.0 mg/kg/injection, schedule: Q01DX011 (ip), vehicle: saline) 15 % of control. Besides, the T/C is, setting by setting: (dose: 360.0 mg/kg/injection, schedule: Q03DX004 (ip), vehicle: saline) 36 % of control; (dose: 480.0 mg/kg/injection, schedule: Q01DX011 (ip), vehicle: saline) 16 % of control.
On to `C[C@]12CCC(=O)C=C1CC[C@H]1[C@@H]3CC[C@](O)(C(=O)CF)[C@@]3(C)C[C@H](O)[C@@]12F`, for which the T/C reads like this: (dose: 0.87 mg/kg/injection, schedule: Q01DX011 (sc), vehicle: steriod suspending solution) 86 % of control; (dose: 1.75 mg/kg/injection, schedule: Q01DX011 (sc), vehicle: steriod suspending solution) 68 % of control; (dose: 3.5 mg/kg/injection, schedule: Q01DX011 (sc), vehicle: steriod suspending solution) 66 % of control and 69 % of control; (dose: 7.0 mg/kg/injection, schedule: Q01DX011 (sc), vehicle: steriod suspending solution) 29 % of control and 34 % of control and 40 % of control; (dose: 28.0 mg/kg/injection, schedule: Q01DX011 (sc), vehicle: steriod suspending solution) 9 % of control and 28 % of control; (dose: 56.0 mg/kg/injection, schedule: Q01DX011 (sc), vehicle: steriod suspending solution) 10 % of control and 31 % of control.
For the compound `CN(C)C1C(=O)C(C(N)=O)=C(O)C2(O)C(=O)C3=C(O)c4c(O)cccc4C(C)(O)C3C(O)C12` (stereo not given), the T/C was 78 % of control (dose: 19.5 mg/kg/injection, schedule: Q01DX011 (ip), vehicle: carboxymethylcellulose (CMC)); 106 % of control (dose: 19.86 mg/kg/injection, schedule: Q01DX011 (ip), vehicle: carboxymethylcellulose (CMC)); 117 % of control (dose: 31.25 mg/kg/injection, schedule: Q01DX011 (ip), vehicle: methylcellulose (MC)); 91 % of control (dose: 39.0 mg/kg/injection, schedule: Q01DX011 (ip), vehicle: carboxymethylcellulose (CMC)); 81 % of control (dose: 50.0 mg/kg/injection, schedule: Q01DX011 (ip), vehicle: water); 46 % of control (dose: 62.4 mg/kg/injection, schedule: Q01DX011 (ip), vehicle: carboxymethylcellulose (CMC)). The T/C is 69 % of control (dose: 62.5 mg/kg/injection, schedule: Q01DX011 (ip), vehicle: methylcellulose (MC)); 119 % of control (dose: 63.56 mg/kg/injection, schedule: Q01DX011 (ip), vehicle: carboxymethylcellulose (CMC)); 95 % of control and 110 % of control (dose: 78.0 mg/kg/injection, schedule: Q01DX011 (ip), vehicle: carboxymethylcellulose (CMC)); 92 % of control and 75 % of control and 87 % of control (dose: 79.45 mg/kg/injection, schedule: Q01DX011 (ip), vehicle: carboxymethylcellulose (CMC)); 45 % of control (dose: 100.0 mg/kg/injection, schedule: Q01DX011 (ip), vehicle: water); 65 % of control (dose: 104.0 mg/kg/injection, schedule: Q01DX011 (ip), vehicle: carboxymethylcellulose (CMC)). For the same compound, the T/C runs as follows: (dose: 105.93 mg/kg/injection, schedule: Q01DX011 (ip), vehicle: carboxymethylcellulose (CMC)) 96 % of control and 87 % of control; under setting [1], 73 % of control; (dose: 150.0 mg/kg/injection, schedule: Q01DX011 (ip), vehicle: water) 14 % of control.
With `CSc1ncc(Br)c(Nc2ccccc2Cl)n1`, the T/C runs as follows: (dose: 15.0 mg/kg/injection, schedule: Q01DX011 (ip), vehicle: methylcellulose (MC)) 110 % of control; (dose: 31.0 mg/kg/injection, schedule: Q01DX011 (ip), vehicle: methylcellulose (MC)) 104 % of control; (dose: 250.0 mg/kg/injection, schedule: Q01DX011 (ip), vehicle: methylcellulose (MC)) 155 % of control.

What is called T/C is the ratio of treated to control.
